Entries after “also recorded” stand apart in the source; their conditions may differ. Values belong to the molecule of their own block, whether it stands above or below them.
Key:
[1] = Pharmacokinetics, oral bioavailability in rats; assay type: in vivo; conditions: rat, plasma
Procedure: (§1) Pharmacokinetic studies following single-dose and repeat dose administration were performed in mice, rats, dogs, humans and monkeys. Tenalisib plasma concentrations were determined by a validated LC-MS/MS method. The pharmacokinetic profile of tenalisib was evaluated following both oral and intravenous administration. […] In an in vitro study using liver microsomes, the metabolic stability followed a rank order of rat>human>dog>monkey>mouse.

[2] = Pharmacokinetics, oral bioavailability in mice; assay type: in vivo; conditions: mouse, plasma
Procedure: as §1

[3] = Pharmacokinetics, oral bioavailability in dogs; assay type: in vivo; conditions: dog, plasma
Procedure: as §1

[4] = Pharmacokinetic studies, absorption and clearance across the tested species; assay type: in vivo, mice, rats, dogs, humans and monkeys
Procedure: as §1

plasma proteins [5] = experiment: In vitro protein binding, rat plasma; assay type: in vitro ADME
Procedure: (§2) In vitro protein binding studies were performed using rat, dog, monkey and human plasma. Binding of tenalisib to plasma proteins was >96% across all species.

plasma proteins [6] = experiment: In vitro protein binding, dog plasma; assay type: in vitro ADME
Procedure: as §2

plasma proteins [7] = experiment: In vitro protein binding, monkey plasma; assay type: in vitro ADME
Procedure: as §2

plasma proteins [8] = experiment: In vitro protein binding, human plasma; assay type: in vitro ADME
Procedure: as §2

[9] = In vitro plasma stability, rat plasma; assay type: in vitro ADME; conditions: LC-MS/MS
Procedure: (§3) In vitro plasma stability studies were performed using rat, dog, monkey and human plasma. The concentration of tenalisib was measured by LC-MS/MS.

[10] = In vitro plasma stability, dog plasma; assay type: in vitro ADME; conditions: LC-MS/MS
Procedure: as §3

[11] = In vitro plasma stability, monkey plasma; assay type: in vitro ADME; conditions: LC-MS/MS
Procedure: as §3

[12] = In vitro plasma stability, human plasma; assay type: in vitro ADME; conditions: LC-MS/MS
Procedure: as §3

[13] = Tissue distribution upon single oral administration; assay type: in vivo; conditions: single oral administration 10 mg/kg bodyweight; male wistar rats
Procedure: Tissue distribution upon single oral administration (10 mg/kg bodyweight) of tenalisib was studied in male wistar rats. The rank order of Cmax and AUC in Wistar rats was liver>kidney>heart>plasma>thymus>spleen>serum>lung>blood>brain.

[14] = Metabolic stability in liver microsomes, mouse; assay type: in vitro ADME
Excerpt: (§4) In in vitro studies using liver microsomes, the metabolic stability of tenalisib followed the rank order of rat>human>dog>monkey>mouse (Table 3).

[15] = Metabolic stability in liver microsomes, rat; assay type: in vitro ADME
Excerpt: as §4

[16] = Metabolic stability in liver microsomes, dog; assay type: in vitro ADME
Excerpt: as §4

[17] = Metabolic stability in liver microsomes, monkey; assay type: in vitro ADME
Excerpt: as §4

[18] = Metabolic stability in liver microsomes, human; assay type: in vitro ADME
Excerpt: as §4

[19] = Metabolic stability in liver microsomes, rank order across species; assay type: in vitro ADME, rat, human, dog, monkey, mouse
Procedure: as §1, §4

PI3Kδ [20] = molecular target: T1, PI3Kδ (Homo sapiens, UniProt O00329); experiment: PI3K isoform enzyme assay (HTRF), PI3Kδ; assay type: biochemical
T1 sequence (O00329 whole entry, canonical isoform): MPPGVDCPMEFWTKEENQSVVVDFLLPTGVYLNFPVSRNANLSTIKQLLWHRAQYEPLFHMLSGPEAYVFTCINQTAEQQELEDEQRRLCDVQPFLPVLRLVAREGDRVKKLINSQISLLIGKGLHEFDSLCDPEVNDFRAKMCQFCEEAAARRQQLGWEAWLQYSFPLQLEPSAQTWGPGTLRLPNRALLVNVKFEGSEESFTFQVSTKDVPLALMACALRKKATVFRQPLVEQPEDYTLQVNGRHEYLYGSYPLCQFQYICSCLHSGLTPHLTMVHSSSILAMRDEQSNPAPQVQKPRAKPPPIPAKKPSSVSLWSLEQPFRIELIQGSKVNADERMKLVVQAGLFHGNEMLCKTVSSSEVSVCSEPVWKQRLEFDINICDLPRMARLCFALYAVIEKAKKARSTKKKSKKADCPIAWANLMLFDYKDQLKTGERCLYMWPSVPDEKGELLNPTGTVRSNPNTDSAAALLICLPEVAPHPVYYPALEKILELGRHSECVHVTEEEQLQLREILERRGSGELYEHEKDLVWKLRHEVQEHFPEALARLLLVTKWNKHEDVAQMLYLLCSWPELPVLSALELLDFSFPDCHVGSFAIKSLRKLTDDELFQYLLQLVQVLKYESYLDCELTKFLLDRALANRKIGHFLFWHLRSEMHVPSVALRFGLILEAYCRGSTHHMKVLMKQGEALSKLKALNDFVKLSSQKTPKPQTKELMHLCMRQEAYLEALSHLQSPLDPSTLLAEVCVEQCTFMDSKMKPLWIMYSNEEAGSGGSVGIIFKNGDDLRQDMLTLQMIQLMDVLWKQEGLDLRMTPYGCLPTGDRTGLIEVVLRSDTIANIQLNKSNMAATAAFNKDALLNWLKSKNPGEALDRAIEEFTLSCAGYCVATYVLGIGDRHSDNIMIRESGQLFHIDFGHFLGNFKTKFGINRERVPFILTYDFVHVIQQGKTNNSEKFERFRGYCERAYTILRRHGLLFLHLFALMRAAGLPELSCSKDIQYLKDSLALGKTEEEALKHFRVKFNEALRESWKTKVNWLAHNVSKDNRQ
T1 sequence (P27986 whole entry partner, canonical isoform): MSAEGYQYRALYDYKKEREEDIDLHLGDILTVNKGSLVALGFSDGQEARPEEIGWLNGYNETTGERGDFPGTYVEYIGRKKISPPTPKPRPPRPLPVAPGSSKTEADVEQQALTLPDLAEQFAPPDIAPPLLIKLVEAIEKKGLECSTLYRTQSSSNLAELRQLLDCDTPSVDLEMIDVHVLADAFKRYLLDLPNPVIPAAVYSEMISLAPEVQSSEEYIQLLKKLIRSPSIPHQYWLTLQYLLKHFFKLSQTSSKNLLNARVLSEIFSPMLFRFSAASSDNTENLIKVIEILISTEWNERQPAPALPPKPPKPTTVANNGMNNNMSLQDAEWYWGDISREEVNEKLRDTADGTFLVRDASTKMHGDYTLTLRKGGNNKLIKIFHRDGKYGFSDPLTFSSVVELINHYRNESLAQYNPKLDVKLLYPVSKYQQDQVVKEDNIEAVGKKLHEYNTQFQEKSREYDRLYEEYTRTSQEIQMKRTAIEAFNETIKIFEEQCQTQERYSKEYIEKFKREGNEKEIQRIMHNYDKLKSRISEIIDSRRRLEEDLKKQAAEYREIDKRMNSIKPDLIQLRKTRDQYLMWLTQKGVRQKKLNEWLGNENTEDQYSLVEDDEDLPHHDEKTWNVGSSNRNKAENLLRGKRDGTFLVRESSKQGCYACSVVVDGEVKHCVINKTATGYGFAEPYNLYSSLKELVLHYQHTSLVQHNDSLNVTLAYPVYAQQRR

PI3Kγ [21] = molecular target: T2, PI3Kγ (Homo sapiens, UniProt P48736); experiment: PI3K isoform enzyme assay (HTRF), PI3Kγ; assay type: biochemical; conditions: 100 μM ATP
T2 sequence (P48736 whole entry, canonical isoform): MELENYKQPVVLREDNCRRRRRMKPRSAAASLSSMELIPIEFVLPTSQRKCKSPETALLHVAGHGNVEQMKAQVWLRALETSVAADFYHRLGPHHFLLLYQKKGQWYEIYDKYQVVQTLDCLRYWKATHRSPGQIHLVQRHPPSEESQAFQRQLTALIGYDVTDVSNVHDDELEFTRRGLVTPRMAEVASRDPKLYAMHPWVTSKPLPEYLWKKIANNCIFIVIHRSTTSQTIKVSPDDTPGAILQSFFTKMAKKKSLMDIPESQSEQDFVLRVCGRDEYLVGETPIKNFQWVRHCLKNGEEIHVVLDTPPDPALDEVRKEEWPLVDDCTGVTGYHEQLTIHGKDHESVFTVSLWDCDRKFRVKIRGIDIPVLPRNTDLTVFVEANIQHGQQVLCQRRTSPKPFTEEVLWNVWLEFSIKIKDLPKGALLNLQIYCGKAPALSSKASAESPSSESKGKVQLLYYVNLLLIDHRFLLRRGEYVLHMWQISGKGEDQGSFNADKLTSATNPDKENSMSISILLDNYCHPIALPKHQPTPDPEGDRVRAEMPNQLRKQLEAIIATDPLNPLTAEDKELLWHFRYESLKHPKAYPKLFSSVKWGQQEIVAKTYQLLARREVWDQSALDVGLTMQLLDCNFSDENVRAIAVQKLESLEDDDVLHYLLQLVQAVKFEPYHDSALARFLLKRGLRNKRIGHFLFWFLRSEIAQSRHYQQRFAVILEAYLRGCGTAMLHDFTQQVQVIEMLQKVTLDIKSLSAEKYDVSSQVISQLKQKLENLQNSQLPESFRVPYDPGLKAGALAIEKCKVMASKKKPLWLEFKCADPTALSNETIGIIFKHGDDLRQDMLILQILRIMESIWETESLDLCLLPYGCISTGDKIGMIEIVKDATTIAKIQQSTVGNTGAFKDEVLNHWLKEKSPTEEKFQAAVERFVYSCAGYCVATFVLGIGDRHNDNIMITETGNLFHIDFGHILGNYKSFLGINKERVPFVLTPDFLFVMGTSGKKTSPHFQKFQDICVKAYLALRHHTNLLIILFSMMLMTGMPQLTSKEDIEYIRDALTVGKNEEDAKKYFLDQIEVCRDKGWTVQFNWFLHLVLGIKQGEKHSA

PI3Kβ [22] = molecular target: PI3Kβ (Homo sapiens, UniProt P42338); experiment: PI3K isoform enzyme assay (HTRF), PI3Kβ; assay type: biochemical; conditions: 100 μM ATP
PI3Kγ [23] = molecular target: T3, PI3Kγ (Mus musculus, UniProt Q9JHG7); experiment: PI3K isoform cell-based assay: c5a induced pAKT in RAW macrophages
T3 construct: endogenous in cells; host or cells: RAW macrophages (c5a induced pAKT)

PI3Kβ [24] = molecular target: T4, PI3Kβ (Mus musculus, UniProt Q8BTI9); experiment: PI3K isoform cell-based assay: PI3K β-mediated phosphorylation of AKT in 3T3 fibroblasts; conditions: pAKT by PDGF or lysophosphatidic acid in 3T3 fibroblasts
T4 construct: endogenous in cells; host or cells: 3T3 fibroblasts (pAKT)

PI3Kα = molecular target: T5, PI3Kα (Mus musculus, UniProt P42337); experiment: PI3K isoform cell-based assay: PI3K α-mediated phosphorylation of AKT in 3T3 fibroblasts; conditions: pAKT by PDGF or lysophosphatidic acid in 3T3 fibroblasts
T5 construct: endogenous in cells; host or cells: 3T3 fibroblasts (pAKT)

[25] = tested on: MC38 syngeneic murine colon carcinoma; experiment: MC38 syngeneic murine colon carcinoma C57BL/6 model; assay type: in vivo; conditions: day 22; daily tenalisib; C57BL/6 female mice
Procedure: Daily tenalisib alone and in combination with anti-PD-1 (clone: RMP1-14) was evaluated for tumor growth inhibition (TGI) in the MC38 syngeneic murine colon carcinoma model in immunocompetent C57BL/6 female mice.

[26] = tested on: locally advanced or metastatic breast cancer; experiment: Phase II randomized open label study in breast cancer patients; assay type: in vivo, human
Procedure: This is a Phase II, randomized, open label study, designed to evaluate the preliminary efficacy and safety of tenalisib (Compound A) at two dose levels (800 mg BID and 1200 mg BID) in 40 patients with locally advanced or metastatic breast cancer. 20 patients will be enrolled in each of Group 1 (tenalisib 800 mg BID) and Group 2 (tenalisib 1200 mg BID). Both groups will be run in parallel.
• 1. Provision of full informed consent prior to any study-specific procedures. • 2. Patients must be ≥18 years of age, at the time of signing informed consent. • 3. Female patients who have histologically and/or cytologically confirmed locally advanced or metastatic breast cancer that has progressed following at least one line of therapy. • 4. Patients with at least one measurable lesion per RECIST version 1.1 at baseline that can be accurately assessed by CT scan or MRI and is suitable for repeated assessment at follow up-visits. • 5. ECOG performance status 0 to 2. • 6. Life expectancy of at least 3 months. • 7. […] Female patient of childbearing potential should be willing to use a medically acceptable method of contraception as defined in Appendix B while participating in the study and for 30 days after the last dose of study drug AND must have a negative serum pregnancy test within 3 days prior to Cycle 1 Day 1 (C1D1). • 9. Ability to swallow and retain oral medication. • 10. Willingness and capability to comply with the study requirements.

PI3Kγ [27] = molecular target: T2, PI3Kγ; experiment: fMLP induced CD63 expression in human whole blood; assay type: cell-based; set-up: endogenous in cells; host or cells: human whole blood (fMLP induced CD63); conditions: whole blood from healthy human subjects; flow cytometry; read-out: EC50 of fMLP (PI3Kγ) mediated CD63 expression
PI3Kδ [28] = molecular target: T1, PI3Kδ; experiment: anti-FcεR1 induced CD63 expression in human whole blood; assay type: cell-based; set-up: endogenous in cells; host or cells: human whole blood (anti-FcεR1 induced CD63); conditions: whole blood from healthy human subjects; flow cytometry; read-out: EC50 of anti-FcεR1 (PI3Kδ) mediated CD63 expression
PI3Kδ [29] = molecular target: T1, PI3Kδ; experiment: PI3K isoform cell-based assay: anti-IgM induced human B-cell proliferation; set-up: endogenous in cells; host or cells: human B cells (anti-IgM proliferation); human whole blood (anti-FcεR1 induced CD63)
[30] = tested on: MCF-7 breast cancer cell lines; experiment: cells; conditions: Homo sapiens, MCF7, 72 h, read-out: growth inhibition
SIK3 = SIK3 (Homo sapiens, UniProt Q9Y2K2); experiment: SIK3 inhibition assay (enzymatic radiometric); assay type: biochemical; conditions: 10 μM ATP
Chain of SIK3 (Q9Y2K2 whole entry): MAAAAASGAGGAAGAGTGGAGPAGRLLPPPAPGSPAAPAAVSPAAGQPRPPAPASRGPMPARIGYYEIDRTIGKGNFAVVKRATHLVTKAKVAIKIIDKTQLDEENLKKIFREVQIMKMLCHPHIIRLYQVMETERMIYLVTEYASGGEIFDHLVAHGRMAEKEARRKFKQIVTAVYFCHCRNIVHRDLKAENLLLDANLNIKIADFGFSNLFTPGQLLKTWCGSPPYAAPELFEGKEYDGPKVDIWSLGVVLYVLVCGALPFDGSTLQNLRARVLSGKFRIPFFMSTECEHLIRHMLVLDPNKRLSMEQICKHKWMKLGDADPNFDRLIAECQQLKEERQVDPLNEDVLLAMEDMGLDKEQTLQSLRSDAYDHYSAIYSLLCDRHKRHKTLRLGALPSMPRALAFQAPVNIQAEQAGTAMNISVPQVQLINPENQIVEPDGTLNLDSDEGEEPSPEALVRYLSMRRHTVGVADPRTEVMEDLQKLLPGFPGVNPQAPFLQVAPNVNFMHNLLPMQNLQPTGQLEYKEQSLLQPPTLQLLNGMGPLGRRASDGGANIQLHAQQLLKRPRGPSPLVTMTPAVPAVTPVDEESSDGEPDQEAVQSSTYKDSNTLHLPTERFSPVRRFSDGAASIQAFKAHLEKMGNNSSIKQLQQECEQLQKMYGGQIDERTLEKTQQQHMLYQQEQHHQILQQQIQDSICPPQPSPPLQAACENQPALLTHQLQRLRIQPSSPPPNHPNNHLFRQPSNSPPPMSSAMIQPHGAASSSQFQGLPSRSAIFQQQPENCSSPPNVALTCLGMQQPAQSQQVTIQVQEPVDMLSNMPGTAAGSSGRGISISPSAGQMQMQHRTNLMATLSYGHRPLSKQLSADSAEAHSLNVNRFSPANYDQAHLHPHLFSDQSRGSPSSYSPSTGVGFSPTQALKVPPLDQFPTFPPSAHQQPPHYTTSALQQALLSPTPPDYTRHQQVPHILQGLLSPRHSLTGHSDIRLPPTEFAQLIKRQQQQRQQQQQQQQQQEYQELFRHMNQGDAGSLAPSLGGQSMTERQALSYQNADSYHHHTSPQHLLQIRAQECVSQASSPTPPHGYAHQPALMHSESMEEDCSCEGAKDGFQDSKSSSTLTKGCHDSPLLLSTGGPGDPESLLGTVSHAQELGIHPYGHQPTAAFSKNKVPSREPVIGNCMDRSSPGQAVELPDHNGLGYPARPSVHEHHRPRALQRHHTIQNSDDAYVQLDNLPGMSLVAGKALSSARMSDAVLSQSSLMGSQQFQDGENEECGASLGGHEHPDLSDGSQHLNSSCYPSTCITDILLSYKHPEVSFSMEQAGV

[31] = tested on: SK-OV-3 ovarian cancer cell line; experiment: Anti-proliferative effect of taxol and Compound (M) (Example 10), SK-OV-3; assay type: cell-based; conditions: Compound (M) 3 μM added to taxol (6 nM, FIG. 7)

- bioavailability [1]: > 72.4%
- bioavailability [2]: 21.6%
- bioavailability [3]: > 100%
- Absorption [4]: rapid
- clearance [4]: moderate
- Binding to plasma proteins (plasma proteins [5]): > 96%
- Binding to plasma proteins (plasma proteins [6]): > 96%
- Binding to plasma proteins (plasma proteins [7]): > 96%
- Binding to plasma proteins (plasma proteins [8]): > 96%
- plasma stability [9]: stable
- plasma stability [10]: stable
- plasma stability [11]: stable
- plasma stability [12]: stable
- % Metabolic Stability [14]: 26.0%
- % Metabolic Stability [15]: 79.3%
- % Metabolic Stability [16]: 52.2%
- % Metabolic Stability [17]: 29.6%
- % Metabolic Stability [18]: 73.9%
- metabolic stability rank order [19]: rat>human>dog>monkey>mouse
- IC50 (PI3Kδ [20]; HTRF, 100 μM ATP): 24.5 nM
- IC50 (PI3Kγ [21]): 33.2 nM
- IC50 (PI3Kβ [22]): 4020 nM
- EC50 (PI3Kγ [23]): 22.3 nM
- EC50 (PI3Kβ [24]): 2070 nM
- EC50 (PI3Kα): > 10000 nM
- EC50 (PI3Kγ [27]): 37.8 nM
- EC50 (PI3Kδ [28]): 39 nM
- selectivity over the α and β isoforms (cell-based assay) (PI3Kδ [29]; PI3K δ/γ versus PI3K α and β): selective
- EC50 (PI3Kδ [29]; anti-IgM induced human B-cell proliferation): 38.1 nM
SMILES: CC[C@H](Nc1ncnc2[nH]cnc12)c1oc2ccccc2c(=O)c1-c1cccc(F)c1 [Compound A, (S)-2-(1-(9H-purin-6-ylamino)propyl)-3-(3-fluorophenyl)-4H-chromen-4-one]
- rank order of Cmax and AUC in tissues [13]: liver>kidney>heart>plasma>thymus>spleen>serum>lung>blood>brain
- selectivity over the α and β isoforms (enzyme assay) (PI3Kδ [20]; PI3K δ/γ versus PI3K α and β, listed as compound of formula (A)): several fold selectivity; also recorded: selective
- TGI (Tumour Growth Inhibition) compared to control [25]: 29%
- Clinical Benefit Rate, % (CBR = PR + CR + SD ≥24 weeks) ([26]; 800 mg BID (N = 20)): (55) %
- Clinical Benefit Rate, n (CBR = PR + CR + SD ≥24 weeks) ([26]; 800 mg BID (N = 20)): 11
- Disease Control rate (DCR), % ([26]; 800 mg BID (N = 20)): (65) %
- Duration of Clinical Benefit, median ([26]; 800 mg BID (N = 20)): 9.36
- Duration of Response (DOR) in ORR patients, median ([26]; 800 mg BID (N = 20)): 7.53
- Duration of Treatment (DOT), median ([26]; 800 mg BID (N = 20)): 5.55
- Objective Response rate (ORR), % ([26]; 800 mg BID (N = 20)): (10) %
- Partial Response, % ([26]; 800 mg BID (N = 20)): (10) %
- Progressive disease, % ([26]; 800 mg BID (N = 20)): (25) %
- Stable disease, % ([26]; 800 mg BID (N = 20)): (55) %
- Clinical Benefit Rate, % (CBR = PR + CR + SD ≥24 weeks) ([26]; 1200 mg BID (N = 20)): (60) %
- Clinical Benefit Rate, n (CBR = PR + CR + SD ≥24 weeks) ([26]; 1200 mg BID (N = 20)): 12
- Disease Control rate (DCR), % ([26]; 1200 mg BID (N = 20)): (70) %
- Duration of Clinical Benefit, median ([26]; 1200 mg BID (N = 20)): 7.46
- Duration of Response (DOR) in ORR patients, median ([26]; 1200 mg BID (N = 20)): 9.36
- Duration of Treatment (DOT), median ([26]; 1200 mg BID (N = 20)): 5.63
- Objective Response rate (ORR), % ([26]; 1200 mg BID (N = 20)): (15) %
- Partial Response, % ([26]; 1200 mg BID (N = 20)): (15) %
- Progressive disease, % ([26]; 1200 mg BID (N = 20)): (20) %
- Stable disease, % ([26]; 1200 mg BID (N = 20)): (55) %
- Clinical Benefit Rate, % (CBR = PR + CR + SD ≥24 weeks) ([26]; All (N = 40)): (57.5) %
- Clinical Benefit Rate, n (CBR = PR + CR + SD ≥24 weeks) ([26]; All (N = 40)): 23
- Disease Control rate (DCR), % ([26]; All (N = 40)): (67.5) %
- Duration of Clinical Benefit, median ([26]; All (N = 40)): 7.46
- Duration of Response (DOR) in ORR patients, median ([26]; All (N = 40)): 9.36
- Duration of Treatment (DOT), median ([26]; All (N = 40)): 5.60
- Objective Response rate (ORR), % ([26]; All (N = 40)): (12.5) %
- Partial Response, % ([26]; All (N = 40)): (12.5) %
- Progressive disease, % ([26]; All (N = 40)): (22.5) %
- Stable disease, % ([26]; All (N = 40)): (55) %

SMILES: COc1cccc2c1C(=O)c1c(O)c3c(c(O)c1C2=O)C[C@@](O)(C(=O)CO)C[C@@H]3O[C@H]1C[C@H](N)[C@H](O)[C@H](C)O1 [Doxorubicin]
- inhibition at 0.05 µM [30]: 42.8%

- % Metabolic Stability [15]: 58.0%
- % Metabolic Stability [16]: 67.6%
- % Metabolic Stability [18]: 58.5%
- IC50 (SIK3): 237 nM
- selectivity over the SIK1 and SIK2 isoforms (SIK3): Selective over
SMILES: CC[C@H](Nc1ncnc2[nH]c(O)nc12)c1oc2ccccc2c(=O)c1-c1cccc(F)c1 [Compound M, (S)-3-(3-fluorophenyl)-2-(1-((8-hydroxy-9H-purin-6-yl)amino)propyl)-4H-chromen-4-one]
- potentiation of the activity of taxol [31]: potentiated

— patent US20250241923A1, “A DUAL SELECTIVE PI3K DELTA AND GAMMA INHIBITORS AND/OR A SALT-INDUCIBLE KINASE 3 INHIBITOR FOR TREATING SOLID TUMORS” (Incozen Therapeutics Pvt. Ltd, priority 2022, published 2025)
